In article PMC6150365, “Simultaneous Determination of Seven Components in Rat Plasma by the UPLC-MS/MS Method and Application of Pharmacokinetic Studies to SimiaoYong’an Decoction” (Molecules : A Journal of Synthetic Chemistry and Natural …, 2017):

Assay: Pharmacokinetic study in rats after oral administration of SYD extract and its single and combined TCM extracts (UPLC-MS/MS of plasma)
Settings: male, Sprague-Dawley, rat, plasma, po, n = 6; for AUC(0-t) / AUC(0-inf) / MRT last / MRT inf / Tmax / Cmax: rat plasma; for MRT last: MRT(0–t); for MRT inf: MRT(0–∞)
[1] = 2.49 g/kg, oral SN extract 2.49 g/kg
[2] = 3.38 g/kg extract (6.67 g/kg as herbs), oral SN + GU extract
[3] = 3.38 g·kg^−1 (extract), oral SN + GU extract
[4] = 3.98 g/kg extract (8.33 g/kg as herbs), oral SN + AS extract
[5] = 4.5 g·kg^−1 (extract), oral LJ + SN extract
[6] = 4.5 g·kg^−1 extract, oral LJ + SN extract
[7] = 4.73 g/kg, oral LJ + SN + GU extract 4.73 g/kg
[8] = 5.43 g/kg, oral LJ + SN + AS extract 5.43 g/kg
[9] = 8.25 g/kg, oral SYD extract 8.25 g/kg

COc1ccc(CCO[C@@H]2O[C@H](CO[C@@H]3OC[C@H](O)[C@H](O)[C@H]3O)[C@@H](OC(=O)/C=C/c3ccc(O)c(OC)c3)[C@H](O[C@@H]3O[C@@H](C)[C@H](O)[C@@H](O)[C@H]3O)[C@H]2O)cc1O [Angoroside C, angoroside C]
AUC(0-t) [1]: 90 ± 30 ng·h/mL | AUC(0-inf) [1]: 110 ± 20 ng·h/mL | MRT last [1]: 3.03 ± 0.37 h | MRT inf [1]: 18.1 ± 3.41 h | Tmax (2.49 g/kg, Tmax, oral SN extract 2.49 g/kg): 1.25 ± 0.59 h | half-life (2.49 g/kg, t1/2, rat plasma, oral SN extract 2.49 g/kg): 10.7 ± 6.13 h | MRT last [2]: 2.86 ± 1.21 h | MRT inf [2]: 4.99 ± 3.19 h | Tmax (3.38 g/kg extract (6.67 g/kg as herbs), Tmax, oral SN + GU extract): 1.11 ± 0.52 h | half-life (3.38 g/kg extract (6.67 g/kg as herbs), t1/2, rat plasma, oral SN + GU extract): 9.91 ± 4.62 h | AUC(0-t) [3]: 410 ± 60 ng·h/mL | AUC(0-inf) [3]: 420 ± 80 ng·h/mL | Cmax (3.38 g·kg^−1 extract, oral SN + GU extract): 330 ± 50 ng/mL | AUC(0-t) [4]: 450 ± 30 ng·h/mL | AUC(0-inf) [4]: 460 ± 30 ng·h/mL | MRT last [4]: 2.85 ± 1.25 h | MRT inf [4]: 5.01 ± 3.31 h | Tmax (3.98 g·kg^−1, Tmax, oral SN + AS extract): 1.03 ± 0.49 h | half-life (3.98 g·kg^−1, t1/2, rat plasma, oral SN + AS extract): 10 ± 4.72 h | Cmax (3.98 g·kg^−1 extract, oral SN + AS extract): 400 ± 20 ng/mL | MRT last [5]: 2.88 ± 1.23 h | MRT inf [5]: 5.22 ± 3.5 h | Tmax (4.5 g·kg^−1 (extract), Tmax, oral LJ + SN extract): 1.07 ± 0.54 h | half-life (4.5 g·kg^−1 (extract), t1/2, rat plasma, oral LJ + SN extract): 10.3 ± 5.06 h | AUC(0-t) [6]: 390 ± 460 ng·h/mL | AUC(0-inf) [6]: 400 ± 460 ng·h/mL | Cmax [6]: 270 ± 330 ng/mL | AUC(0-t) [7]: 220 ± 90 ng·h/mL | AUC(0-inf) [7]: 230 ± 190 ng·h/mL | Cmax [7]: 150 ± 150 ng/mL | MRT last [7]: 2.95 ± 0.82 h | MRT inf [7]: 7.88 ± 6.88 h | Tmax (4.73 g/kg, Tmax, oral LJ + SN + GU extract 4.73 g/kg): 1.29 ± 0.46 h | half-life (4.73 g/kg, t1/2, rat plasma, oral LJ + SN + GU extract 4.73 g/kg): 11.7 ± 6.52 h | AUC(0-t) [8]: 180 ± 130 ng·h/mL | AUC(0-inf) [8]: 200 ± 130 ng·h/mL | Cmax [8]: 140 ± 130 ng/mL | MRT last [8]: 3.05 ± 0.7 h | MRT inf [8]: 8.16 ± 6.76 h | Tmax (5.43 g/kg, Tmax, oral LJ + SN + AS extract 5.43 g/kg): 1.38 ± 0.44 h | half-life (5.43 g/kg, t1/2, rat plasma, oral LJ + SN + AS extract 5.43 g/kg): 11.8 ± 6.58 h | AUC(0-t) [9]: 300 ± 290 ng·h/mL | AUC(0-inf) [9]: 310 ± 290 ng·h/mL | Cmax [9]: 180 ± 200 ng/mL | MRT last [9]: 3.01 ± 0.69 h | MRT inf [9]: 7.01 ± 5.95 h | Tmax (8.25 g/kg, Tmax, oral SYD extract 8.25 g/kg): 1.38 ± 0.44 h | half-life (8.25 g/kg, t1/2, rat plasma, oral SYD extract 8.25 g/kg): 11.4 ± 6.34 h | Tmax ([…], Tmax, oral SN + AS + GU extract […]): 1.38 ± 0.44 h | half-life ([…], t1/2, rat plasma, oral SN + AS + GU extract […]): 11.6 ± 6.42 h
